Here are results for two compounds from patent publication US20140303256A1 (UNIVERSITY INDUSTRY COOPERATION GROUP OF KYUNG HEE …, priority 2011, published 2014).

One test has as its system NMDA receptor. To be noted: previous report; cited from earlier work.
A further test concerns CCL-3. Nature of the test: CCL-3 chemoattractant expression by RT-PCR after spinal cord injury. The test is classed as in vivo, mouse. Conditions: 1~5 days after spinal cord injury.
Test [1] relates to MMP-9. Nature of the test: MMP-9 expression by RT-PCR in spinal cord tissue after spinal cord injury. In kind it is in vivo. To be noted: mouse treated with fluoxetine (200 mg/kg i.p. once a day) after spinal cord injury vs saline.
Protocol: (§1) Adult male C57BL/6 mice (20˜30 g) were anaesthetized with chloral hydrate (500 mg/kg) and T8˜T10 were exposed. The exposed T9 was subjected to contusion injury (by dropping a weight at the impact strength of 40 kd) using PSI (Precision Systems and Instrumentation) impactor. After confirming that a certain damage was given within the error range based on the data of injury level, the incision sites were sealed. After disinfecting the incision sites, the mice were raised in cages (2 mice/cage). Urination was induced by massaging the bladder three times a day. […] Louis, Mo.) dissolved in saline was immediately administered into injured mice via intraperitoneal injection (200 mg/kg). Saline was administered for the control. The administration was performed once a day and continued for 2 weeks. […] Spinal nerve was cut, followed by embedding in OCT compound, which was sectioned by using a cryostat. The spinal cord tissue for the extraction of RNA and protein proceeded to perfusion with PBS. Then, the spinal cord tissue was cut 0.8 cm from the injured area, which was stored in liquid nitrogen at −80° C. until use. RNA was extracted by using TRIZOL Reagent (Invitrogen) according to manufacturer's manual. Total reaction mixture (20 μl) containing 1 μg of RNA was prepared, followed by RT-PCR using MMLV reverse transcriptase (Invitrogen). […]
Another test has as its system neutrophils. Nature of the test: Neutrophil infiltration into spinal cord by flow cytometry. In kind it is in vivo, mouse. To be noted: flow cytometry (high CD45 and Gr-1), 1 and 5 days after spinal cord injury, vs saline. Background: Flow cytometry measures light scatter and fluorescence of single cells or particles in a stream.
Test [2] has as its system MMP-2. Nature of the test: MMP-2 expression by RT-PCR in spinal cord tissue after spinal cord injury. The test is classed as in vivo. Conditions: mouse treated with fluoxetine (200 mg/kg i.p. once a day) after spinal cord injury vs saline.
Protocol: as §1
Test [3] relates to ZO-1. The test is described as follows: ZO-1 (tight junction protein) amount by western blot after spinal cord injury. In kind it is in vivo, mouse. To be noted: vs saline. (Immunoblotting shows a protein as a band on a membrane.)
Protocol: Adult male C57BL/6 mice (20˜30 g) were anaesthetized with chloral hydrate (500 mg/kg) and T8˜T10 were exposed. The exposed T9 was subjected to contusion injury (by dropping a weight at the impact strength of 40 kd) using PSI (Precision Systems and Instrumentation) impactor. After confirming that a certain damage was given within the error range based on the data of injury level, the incision sites were sealed. After disinfecting the incision sites, the mice were raised in cages (2 mice/cage). Urination was induced by massaging the bladder three times a day. […] Louis, Mo.) dissolved in saline was immediately administered into injured mice via intraperitoneal injection (200 mg/kg). Saline was administered for the control. The administration was performed once a day and continued for 2 weeks. […] The protein was transferred onto nitrocellulose membrane, followed by western blot according to the protocol described in each antibody data sheet.
The conditions of test [4]: maximal electroshock convulsion test in mouse; Leander 1992; cited from earlier work. Background: The maximal electroshock test induces tonic seizures with an electrical stimulus.
Test [5] has as its system MMP-9. Nature of the test: MMP-9 activation by gelatin zymography of spinal cord tissue after spinal cord injury. Conditions: spinal cord tissue 1 day (peak time) after spinal cord injury, vs saline. In kind it is in vivo, mouse.
Protocol: (§2) Adult male C57BL/6 mice (20˜30 g) were anaesthetized with chloral hydrate (500 mg/kg) and T8˜T10 were exposed. The exposed T9 was subjected to contusion injury (by dropping a weight at the impact strength of 40 kd) using PSI (Precision Systems and Instrumentation) impactor. […] Louis, Mo.) dissolved in saline was immediately administered into injured mice via intraperitoneal injection (200 mg/kg). Saline was administered for the control. The administration was performed once a day and continued for 2 weeks. […] Then, the gel was loaded in renaturing buffer (2.5% Triton X-100), followed by incubation at room temperature for 30 minutes. The gel was loaded in developing buffer (50 mM Tris-HCl, pH 8.5, 0.2 M NaCl, 5 mM CaCl2, 0.02% Brii35), which stood at 37° C. for 24 hours. […] At this time, the clear band on the zymogram gel indicated gelatinase activity.
The next test deals with MMP-12. Nature of the test: MMP-12 expression by RT-PCR in spinal cord tissue after spinal cord injury. The test is classed as in vivo. Conditions: mouse treated with fluoxetine (200 mg/kg i.p. once a day) after spinal cord injury vs saline.
Test [6] has as its system ZO-1. Nature of the test: ZO-1 immunohistochemical staining of spinal cord sections after spinal cord injury. In kind it is in vivo, mouse. To be noted: tissue sections after spinal cord injury, vs saline.
Protocol: Adult male C57BL/6 mice (20˜30 g) were anaesthetized with chloral hydrate (500 mg/kg) and T8˜T10 were exposed. The exposed T9 was subjected to contusion injury (by dropping a weight at the impact strength of 40 kd) using PSI (Precision Systems and Instrumentation) impactor. After confirming that a certain damage was given within the error range based on the data of injury level, the incision sites were sealed. After disinfecting the incision sites, the mice were raised in cages (2 mice/cage). Urination was induced by massaging the bladder three times a day. […] Louis, Mo.) dissolved in saline was immediately administered into injured mice via intraperitoneal injection (200 mg/kg). Saline was administered for the control. The administration was performed once a day and continued for 2 weeks. […] Spinal nerve was cut, followed by embedding in OCT compound, which was sectioned by using a cryostat. […] 10 μm tissue sections were reacted under the condition proposed in each primary antibody manual, followed by color development by using secondary antibodies. For immunofluorescence staining, secondary antibodies of Jackson were used. For DAB color development, Vectastatin kit (Vector) was used.
Test [7] has as its system MMP-2. The test is described as follows: MMP-2 activation by gelatin zymography of spinal cord tissue after spinal cord injury. To be noted: spinal cord tissue 1 day (peak time) after spinal cord injury, vs saline. In kind it is in vivo, mouse.
Protocol: as §2
The next test relates to CCL-4. Nature of the test: CCL-4 chemoattractant expression by RT-PCR after spinal cord injury. The test is classed as in vivo, mouse. To be noted: 1~5 days after spinal cord injury.
Another test has as its system macrophages. The test is described as follows: Macrophage infiltration into spinal cord by flow cytometry. In kind it is in vivo, mouse. To be noted: flow cytometry (high CD45 and CD11b), 1 and 5 days after spinal cord injury, vs saline.
The next test concerns spinal cord injury mouse. The test is described as follows: Animal behavioral test (BBB test), recovery of exercise function after spinal cord injury. In kind it is in vivo.

Protocol for CCL-3: (§3) Adult male C57BL/6 mice (20˜30 g) were anaesthetized with chloral hydrate (500 mg/kg) and T8˜T10 were exposed. The exposed T9 was subjected to contusion injury (by dropping a weight at the impact strength of 40 kd) using PSI (Precision Systems and Instrumentation) impactor. After confirming that a certain damage was given within the error range based on the data of injury level, the incision sites were sealed. After disinfecting the incision sites, the mice were raised in cages (2 mice/cage). Urination was induced by massaging the bladder three times a day. […] Louis, Mo.) dissolved in saline was immediately administered into injured mice via intraperitoneal injection (200 mg/kg). Saline was administered for the control. The administration was performed once a day and continued for 2 weeks. RNA was extracted by using TRIZOL Reagent (Invitrogen) according to manufacturer's manual. Total reaction mixture (20 μl) containing 1 μg of RNA was prepared, followed by RT-PCR using MMLV reverse transcriptase (Invitrogen).
Protocol for CCL-4: as §3
Protocol for MMP-12: as §1
Protocol for macrophages: (§4) Adult male C57BL/6 mice (20˜30 g) were anaesthetized with chloral hydrate (500 mg/kg) and T8˜T10 were exposed. The exposed T9 was subjected to contusion injury (by dropping a weight at the impact strength of 40 kd) using PSI (Precision Systems and Instrumentation) impactor. After confirming that a certain damage was given within the error range based on the data of injury level, the incision sites were sealed. After disinfecting the incision sites, the mice were raised in cages (2 mice/cage). Urination was induced by massaging the bladder three times a day. […] Louis, Mo.) dissolved in saline was immediately administered into injured mice via intraperitoneal injection (200 mg/kg). Saline was administered for the control. The administration was performed once a day and continued for 2 weeks. The spinal cord tissue was extracted 1 and 5 days after spinal cord injury, which was added into PBS. The spinal cord tissue in PBS was mechanically disrupted with a dounce homogenizer, followed by centrifugation at 1,100 rpm for 10 minutes. The obtained pellet was resuspended in FBS containing buffer, which was centrifuged at 3,000 rpm for 7 minutes. […] After washing with FBS containing buffer, neutrophils and macrophages infiltrated into spinal cord 1 and 5 days after spinal cord injury were measured by using Becton Dickinson LSR Benchtop Flow Cytometer (BD Biosciences). […]
Protocol for neutrophils: as §4
Protocol for spinal cord injury mouse: Adult male C57BL/6 mice (20˜30 g) were anaesthetized with chloral hydrate (500 mg/kg) and T8˜T10 were exposed. The exposed T9 was subjected to contusion injury (by dropping a weight at the impact strength of 40 kd) using PSI (Precision Systems and Instrumentation) impactor. After confirming that a certain damage was given within the error range based on the data of injury level, the incision sites were sealed. After disinfecting the incision sites, the mice were raised in cages (2 mice/cage). Urination was induced by massaging the bladder three times a day. […] Louis, Mo.) dissolved in saline was immediately administered into injured mice via intraperitoneal injection (200 mg/kg). Saline was administered for the control. The administration was performed once a day and continued for 2 weeks. BBB test is the method to evaluate the recovery of various nerve fascicles controlling exercise function in combination, in which scores are recorded from 0 to 21. […] A normal mouse got 21 scores for that. So, the exercise function is regarded to be improved as the score got higher. […] The mice were let go freely in the box so as for the mice to be adapted to the experimental environment. […] The average of BBB test scores obtained from those five trained experimenters was considered as the final BBB score for the mouse. To eliminate personal prejudice on the test animal, the experimenters were not given any information on the mice. They only observed the mice 4 minutes every time to give scores.

Turning to `C[C@]12N[C@H](Cc3ccccc31)c1ccccc12` [MK-801], the “neurotoxic effect of Aβ” value in the test on NMDA receptor is listed as “inhibited”.
With `CNCCC(Oc1ccc(C(F)(F)F)cc1)c1ccccc1` (stereo not shown) [fluoxetine], the “expression of CCL-3” value in the test on CCL-3 is “suppressed”. The “expression of MMP-9” value in the test with MMP-9 [1] is given as “significantly reduced”. Also, in the test on neutrophils, the “number of neutrophils in spinal cord tissues” value was “significantly reduced”. For the same compound, in the test with MMP-2 [2], the “expression of MMP-2” value is “significantly reduced”. In addition, the “amount of ZO-1” value in the test with ZO-1 [3] is “not reduced”. In addition, the “anticonvulsant effects of carbamazepine, phenytoin, and ameltolide” value in test [4] was “increased”. In addition, the “MMP-9 activity (gelatinase activity)” value in the test with MMP-9 [5] is listed as “significantly reduced”. The “expression of MMP-12” value with MMP-12 was “significantly reduced”. Further, the “ZO-1 (immunohistochemical staining)” value in the test on ZO-1 [6] is “hardly reduced”. Also, in the test with MMP-2 [7], the “MMP-2 activity (gelatinase activity)” value is reported as “significantly reduced”. The “expression of CCL-4” value with CCL-4 is listed as “suppressed”. In addition, the “number of macrophages in spinal cord tissues” value in the test on macrophages was “significantly reduced”. For the same compound, the “crossing frequency of forelegs and hind legs during walking” value with spinal cord injury mouse (672 h) was “approximately 50%”. Further, the “BBB points, course” value in the test with spinal cord injury mouse (from 1 week after spinal cord injury, compared with saline only) is listed as “began to increase”. The BBB point in the test with spinal cord injury mouse (ip, 200 mg/kg) was 10.2±0.92.
